Earlier results, collected in patent US11872266B2, “Rapid-acting insulin compositions” (Eli Lilly and Company, priority 2014, dated 2024).

Details: on a molar basis

For “28^B-L-Lysine-29^B-L-proline human insulin [Insulin lispro]”, which “Potency relative to human insulin” value is on record?
The value was “equipotent to human insulin”.
